One assay concerns the target JH2 domain of human Tyk2 (Homo sapiens (Human), UniProt P29597). Description: JH2 Biochemical Assay (TR-FRET probe displacement). Type of assay: binding. (In general: In TR-FRET formats the signal depends on donor and acceptor labels being close together.)
A further assay concerns the target Tyk2 (Homo sapiens (Human), UniProt P29597). In words: pSTAT4 Cell Assay (MSD, NK92 cells). Type of assay: cell-based.
The mark [1] stands for this setting: JH2 domain of human Tyk2, TR-FRET probe displacement.
The mark [2] stands for this setting: TR-FRET probe displacement, JH2 domain of human Tyk2.
[3] abbreviates: TR-FRET probe displacement, JH2 domain.

In general, IC50 refers to the midpoint of a concentration-inhibition curve.

Like-named read-outs stand apart in the source and are kept apart here.

Sequence of JH2 domain of human Tyk2 (P29597 575-876): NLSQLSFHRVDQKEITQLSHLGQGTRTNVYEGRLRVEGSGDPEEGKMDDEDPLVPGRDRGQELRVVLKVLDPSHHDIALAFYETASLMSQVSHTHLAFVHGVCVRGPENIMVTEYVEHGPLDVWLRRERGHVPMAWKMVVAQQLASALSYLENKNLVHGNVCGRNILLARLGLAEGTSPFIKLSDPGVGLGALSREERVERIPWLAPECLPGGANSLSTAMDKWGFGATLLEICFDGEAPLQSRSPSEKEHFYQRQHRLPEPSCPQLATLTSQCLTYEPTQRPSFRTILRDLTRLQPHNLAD
Sequence of Tyk2 (P29597 whole entry, the tested form may be a part): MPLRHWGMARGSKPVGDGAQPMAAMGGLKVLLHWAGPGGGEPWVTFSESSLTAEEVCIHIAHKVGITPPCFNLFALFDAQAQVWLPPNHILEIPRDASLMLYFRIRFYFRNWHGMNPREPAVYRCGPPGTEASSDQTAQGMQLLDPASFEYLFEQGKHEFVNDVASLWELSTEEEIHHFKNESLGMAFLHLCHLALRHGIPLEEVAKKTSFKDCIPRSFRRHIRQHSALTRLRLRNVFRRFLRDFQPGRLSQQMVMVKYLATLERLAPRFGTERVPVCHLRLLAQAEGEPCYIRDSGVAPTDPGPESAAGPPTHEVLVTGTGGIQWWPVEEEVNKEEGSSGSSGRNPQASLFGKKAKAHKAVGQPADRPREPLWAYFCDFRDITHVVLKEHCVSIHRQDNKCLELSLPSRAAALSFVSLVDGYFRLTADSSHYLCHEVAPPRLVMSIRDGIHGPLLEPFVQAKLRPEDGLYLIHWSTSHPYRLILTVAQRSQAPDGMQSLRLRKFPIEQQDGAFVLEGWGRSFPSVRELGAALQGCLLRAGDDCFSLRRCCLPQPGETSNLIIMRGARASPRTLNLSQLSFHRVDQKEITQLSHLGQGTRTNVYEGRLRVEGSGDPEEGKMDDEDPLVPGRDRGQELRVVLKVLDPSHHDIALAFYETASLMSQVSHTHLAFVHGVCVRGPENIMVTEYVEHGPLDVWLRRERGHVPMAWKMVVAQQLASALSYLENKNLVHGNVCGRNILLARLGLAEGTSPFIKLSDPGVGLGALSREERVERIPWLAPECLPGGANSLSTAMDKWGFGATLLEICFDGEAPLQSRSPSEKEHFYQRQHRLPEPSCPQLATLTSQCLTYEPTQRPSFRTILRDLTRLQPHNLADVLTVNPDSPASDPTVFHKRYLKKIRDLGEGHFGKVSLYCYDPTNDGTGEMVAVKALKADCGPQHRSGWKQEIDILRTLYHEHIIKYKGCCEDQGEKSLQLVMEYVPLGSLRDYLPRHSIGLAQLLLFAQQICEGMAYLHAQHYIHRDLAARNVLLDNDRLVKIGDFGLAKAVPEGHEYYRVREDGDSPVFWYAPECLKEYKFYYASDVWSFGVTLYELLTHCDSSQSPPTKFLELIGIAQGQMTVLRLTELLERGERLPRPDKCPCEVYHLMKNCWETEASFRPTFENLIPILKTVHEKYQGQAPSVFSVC

As for `CC(=O)Nc1cc(Nc2cc(C)nc(C(C)(F)F)n2)c(-c2nccc(C3CC3)n2)cn1` [Example 666, N-(5-(4-cyclopropylpyrimidin-2-yl)-4-((2-(1,1-difluoroethyl)-6-methylpyrimidin-4-yl)amino)pyridin-2-yl)acetamide], the IC50 at JH2 domain of human Tyk2 (setting [1]) was ≤ 10 nM; on Tyk2 (MSD) it was 100 to 1000 nM.
As for `CC(=O)Nc1cc(Nc2cc(C)nc(C34CCC(C3)OC4)n2)c(-c2ccn(C)n2)cn1` (stereo not drawn) [Example 557, N-(4-((2-(2-oxabicyclo[2.2.1]heptan-4-yl)-6-methylpyrimidin-4-yl)amino)-5-(1-methyl-1H-pyrazol-3-yl)pyridin-2-yl)acetamide], the IC50 on JH2 domain of human Tyk2 (setting [1]) is ≤ 10 nM; on Tyk2 (MSD), 10 to 100 nM.
For the compound `COc1cc(-c2cnc(NC(C)=O)cc2Nc2ccnc(C(C)(F)F)c2)ncn1` [Example 217, N-(4-((2-(1,1-difluoroethyl)pyridin-4-yl)amino)-5-(6-methoxypyrimidin-4-yl)pyridin-2-yl)acetamide], the IC50 is 10 to 100 nM at JH2 domain of human Tyk2 (setting [2]) and ≥ 1000 nM against Tyk2 (MSD).
As for `CC(=O)Nc1cc(Nc2cc(C)nc(C(C)(F)F)n2)c(OCc2nc(C)co2)cn1` [Example 325, N-(4-((2-(1,1-difluoroethyl)-6-methylpyrimidin-4-yl)amino)-5-((4-methyloxazol-2-yl)methoxy)pyridin-2-yl)acetamide], the IC50 on JH2 domain of human Tyk2 (setting [2]) was ≤ 10 nM; at Tyk2 (MSD), 10 to 100 nM.
As for `CC(=O)Nc1cc(Nc2cc(C)nc(C(C)(F)F)n2)c(OCc2cncc(F)c2)cn1` [Example 474, N-(4-((2-(1,1-difluoroethyl)-6-methylpyrimidin-4-yl)amino)-5-((5-fluoropyridin-3-yl)methoxy)pyridin-2-yl)acetamide], the IC50 on JH2 domain of human Tyk2 (setting [1]) was ≤ 10 nM; at Tyk2 (MSD) it was 10 to 100 nM.
On to `CCc1cc(Nc2cc(NC(C)=O)ncc2-c2cnc(C#N)cn2)nc(C(C)(F)F)n1` [Example 864, N-(5-(5-cyanopyrazin-2-yl)-4-((2-(1,1-difluoroethyl)-6-ethylpyrimidin-4-yl)amino)pyridin-2-yl)acetamide], for which the IC50 at JH2 domain of human Tyk2 (setting [3]) is ≤ 10 nM; at Tyk2, 10 to 100 nM.
In the case of `CC(=O)Nc1cc(Nc2ccnc(C(C)(F)F)n2)c(-c2nc3c(s2)COCC3)cn1` [Example 573, N-(4-((2-(1,1-difluoroethyl)pyrimidin-4-yl)amino)-5-(6,7-dihydrO4H-pyrano[4,3-d]thiazol-2-yl)pyridin-2-yl)acetamide], the IC50 on JH2 domain of human Tyk2 (setting [1]) and against Tyk2 (MSD) was ≤ 10 nM in each case.
With `COc1cncc(-c2cnc(NC(C)=O)cc2Nc2ccnc(C(C)(F)F)n2)n1` [Example 273, N-(4-((2-(1,1-difluoroethyl)pyrimidin-4-yl)amino)-5-(6-methoxypyrazin-2-yl)pyridin-2-yl)acetamide], the IC50 on JH2 domain of human Tyk2 (setting [2]) lay within 10 to 100 nM; against Tyk2 (MSD) it was 100 to 1000 nM.
Turning to `CCc1cc(Nc2cc(NC(C)=O)ncc2-c2cnc(NC)cn2)nc(C(C)(F)F)n1` [Example 860, N-(4-((2-(1,1-difluoroethyl)-6-ethylpyrimidin-4-yl)amino)-5-(5-(methylamino)pyrazin-2-yl)pyridin-2-yl)acetamide], the IC50 at JH2 domain of human Tyk2 (setting [3]) is 100 to 1000 nM; at Tyk2, ≥ 1000 nM.
Consider `CC(=O)Nc1cc(Nc2cc(C)nc(C(C)(F)F)n2)c(-c2cccnn2)cn1` [Example 251, N-(4-((2-(1,1-difluoroethyl)-6-methylpyrimidin-4-yl)amino)-5-(pyridazin-3-yl)pyridin-2-yl)acetamide], for which the IC50 on JH2 domain of human Tyk2 (setting [2]) and on Tyk2 (MSD) was ≤ 10 nM each time.
With `CC(=O)Nc1cc(Nc2cc(C)nc(C(C)(F)F)n2)c(-c2ccc(C)nn2)cn1` [Example 219, N-(4-((2-(1,1-difluoroethyl)-6-methylpyrimidin-4-yl)amino)-5-(6-methylpyridazin-3-yl)pyridin-2-yl)acetamide], the IC50 on JH2 domain of human Tyk2 (setting [2]) and on Tyk2 (MSD) was ≤ 10 nM in each case.
As to `CCOc1cnc(NC(C)=O)cc1Nc1cc(-c2cnn(CCN(C)C)c2)nc(C(C)(F)F)n1` [Example 308, N-(4-((2-(1,1-difluoroethyl)-6-(1-(2-(dimethylamino)ethyl)-1H-pyrazol-4-yl)pyrimidin-4-yl)amino)-5-ethoxypyridin-2-yl)acetamide], the values for the IC50 on JH2 domain of human Tyk2 (setting [2]) and against Tyk2 (MSD) were ≤ 10 nM and 10 to 100 nM, respectively.
In the same order, the values of `COCCOc1cnc(NC(C)=O)cc1Nc1cc(C)nc(C(F)CF)n1` (stereo not drawn) [Example 79, N-(4-((2-(1,2-difluoroethyl)-6-methylpyrimidin-4-yl)amino)-5-(2-methoxyethoxy)pyridin-2-yl)acetamide] are ≤ 10 nM and 10 to 100 nM.
The corresponding values for `CCc1cc(Nc2cc(NC(C)=O)ncc2-c2cnn(CCOC)n2)nc(C(C)(F)F)n1` [Example 261, N-(4-((2-(1,1-difluoroethyl)-6-ethylpyrimidin-4-yl)amino)-5-(2-(2-methoxyethyl)-2H-1,2,3-triazol-4-yl)pyridin-2-yl)acetamide] are ≤ 10 nM and ≤ 10 nM.
Take `CC(=O)Nc1cc(Nc2cc(C)nc(C(C)(F)F)n2)c(OCc2ccon2)cn1` [Example 495, N-(4-((2-(1,1-difluoroethyl)-6-methylpyrimidin-4-yl)amino)-5-(isoxazol-3-ylmethoxy)pyridin-2-yl)acetamide]: the IC50 at JH2 domain of human Tyk2 (setting [1]) was ≤ 10 nM; against Tyk2 (MSD), 10 to 100 nM.
Take `COc1cc(-c2cnc(NC(C)=O)cc2Nc2ccnc(C(C)(F)F)n2)nc(OC)n1` [Example 687, N-(4-((2-(1,1-difluoroethyl)pyrimidin-4-yl)amino)-5-(2,6-dimethoxypyrimidin-4-yl)pyridin-2-yl)acetamide]: the figures for the IC50 on JH2 domain of human Tyk2 (setting [1]) and against Tyk2 (MSD) were ≤ 10 nM and 10 to 100 nM, respectively.
In the same order, the values of `COCc1nccc(-c2cnc(NC(C)=O)cc2Nc2ccnc(C(C)(F)F)n2)n1` [Example 696, N-(4-((2-(1,1-difluoroethyl)pyrimidin-4-yl)amino)-5-(2-(methoxymethyl)pyrimidin-4-yl)pyridin-2-yl)acetamide] are ≤ 10 nM and ≤ 10 nM.
In the same order, the values of `COc1cnc(-c2cnc(NC(C)=O)cc2Nc2cc(C)nc(C(C)(F)F)n2)nc1` [Example 656, N-(4-((2-(1,1-difluoroethyl)-6-methylpyrimidin-4-yl)amino)-5-(5-methoxypyrimidin-2-yl)pyridin-2-yl)acetamide] are ≤ 10 nM and ≤ 10 nM.
In the case of `CC(=O)Nc1cc(Nc2cc(C)nc(C(C)(F)F)n2)c(-c2csc(CN(C)C)n2)cn1` [Example 786, N-(4-((2-(1,1-difluoroethyl)-6-methylpyrimidin-4-yl)amino)-5-(2-((dimethylamino)methyl)thiazol-4-yl)pyridin-2-yl)acetamide], the IC50 at JH2 domain of human Tyk2 (setting [3]) and at Tyk2 was ≤ 10 nM each time.
Regarding `CCOc1cnc(NC(C)=O)cc1Nc1cc(C)nc(C(F)(F)CC)n1` [Example 516, N-(4-((2-(1,1-difluoropropyl)-6-methylpyrimidin-4-yl)amino)-5-ethoxypyridin-2-yl)acetamide], the IC50 is ≤ 10 nM on JH2 domain of human Tyk2 (setting [1]) and 100 to 1000 nM at Tyk2 (MSD).
The corresponding values for `CCc1cc(Nc2cc(NC(C)=O)ncc2-c2ccnc(COC)n2)nc(C(C)(F)F)n1` [Example 720, N-(4-((2-(1,1-difluoroethyl)-6-ethylpyrimidin-4-yl)amino)-5-(2-(methoxymethyl)pyrimidin-4-yl)pyridin-2-yl)acetamide] are ≤ 10 nM and ≤ 10 nM.

(Values after patent publication US20260028365A1 (BIOGEN MA INC., priority 2022, published 2026).)
